Tests used:
[1] = molecular target: T1, human recombinant serotonin (5-Hydroxytryptamine) 5-HT6 receptor (Homo sapiens, UniProt P50406); test: Serotonin 5-HT6 radioligand binding ([3H]LSD); conditions: compound at 1 μM; read-out: Serotonin (1 μM) 5-HT6, percent inhibition of specific binding
T1 construct: expressed in transfected cells; host or cells: human HeLa cells
How it was run: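 Human recombinant 5-HT6 receptor from HeLa cells incubated with 1.5 nM [3H]LSD for 120 min at 37° C in 50 mM Tris-HCl pH 7.4, 150 mM NaCl, 2 mM ascorbic acid, 0.001% BSA. Nonspecific binding defined with 5 μM serotonin; bound ligand counted after filtration.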

[2] = molecular target: T2, human recombinant serotonin (5-Hydroxytryptamine) 5-HT2A receptor (Homo sapiens, UniProt P28223); test: Serotonin 5-HT2A radioligand binding ([3H]Ketanserin); conditions: compound at 1 μM; read-out: Serotonin (1 μM) 5-HT2A, percent inhibition of specific binding
T2 construct: expressed in transfected cells; host or cells: CHO-K1 cells
T2 sequence (P28223 whole entry): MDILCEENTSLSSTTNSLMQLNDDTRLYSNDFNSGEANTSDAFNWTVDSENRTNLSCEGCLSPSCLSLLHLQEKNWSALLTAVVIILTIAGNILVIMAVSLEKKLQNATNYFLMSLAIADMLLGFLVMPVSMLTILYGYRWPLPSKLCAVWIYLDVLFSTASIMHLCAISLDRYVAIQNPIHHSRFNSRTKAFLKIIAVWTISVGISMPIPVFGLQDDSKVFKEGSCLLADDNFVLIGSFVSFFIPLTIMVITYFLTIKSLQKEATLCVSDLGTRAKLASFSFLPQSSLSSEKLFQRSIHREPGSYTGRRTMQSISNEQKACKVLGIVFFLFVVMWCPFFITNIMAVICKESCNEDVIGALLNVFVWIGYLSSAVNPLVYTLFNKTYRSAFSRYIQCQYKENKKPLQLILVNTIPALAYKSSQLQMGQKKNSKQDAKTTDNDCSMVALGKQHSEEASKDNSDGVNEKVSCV
How it was run: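 Percent inhibition of specific [3H]ketanserin (0.5 nM) binding, filtration read-out, with compounds at ≤1 μM (1% DMSO vehicle). Receptor source: recombinant human 5-HT2A in CHO-K1 cells, 50 mM Tris-HCl pH 7.4, 60 min, 25 °C; 1 μM mianserin gives nonspecific binding.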

[3] = molecular target: T3, human recombinant histamine H1 receptor (Homo sapiens, UniProt P35367); test: Histamine H1 radioligand binding ([3H]Pyrilamine); conditions: compound at 1 μM; read-out: Histamine Binding (1 μM) H1, percent inhibition of specific binding
T3 construct: expressed in transfected cells; host or cells: CHO cells
T3 sequence (P35367 whole entry): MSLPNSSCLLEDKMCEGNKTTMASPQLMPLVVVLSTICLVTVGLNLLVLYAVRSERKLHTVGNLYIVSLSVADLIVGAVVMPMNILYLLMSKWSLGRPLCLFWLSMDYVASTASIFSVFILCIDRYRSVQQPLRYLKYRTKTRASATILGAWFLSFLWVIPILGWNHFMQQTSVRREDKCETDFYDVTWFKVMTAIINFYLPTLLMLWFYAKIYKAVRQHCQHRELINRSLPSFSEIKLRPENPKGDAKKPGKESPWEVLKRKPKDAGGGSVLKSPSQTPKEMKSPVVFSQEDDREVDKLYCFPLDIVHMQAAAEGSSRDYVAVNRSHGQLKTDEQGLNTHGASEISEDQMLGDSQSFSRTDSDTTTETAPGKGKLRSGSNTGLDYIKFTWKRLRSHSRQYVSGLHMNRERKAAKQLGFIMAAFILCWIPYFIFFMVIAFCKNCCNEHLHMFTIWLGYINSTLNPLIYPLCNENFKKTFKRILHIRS
How it was run: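 Membranes from CHO cells expressing the receptor were incubated with compound and 1.2 nM [3H]pyrilamine for 180 min at 25 °C in 50 mM Tris-HCl pH 7.4 with MgCl2, NaCl and sucrose; 1 μM pyrilamine defined non-specific binding. Filter-bound radioactivity was counted.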

[4] = molecular target: T4, human recombinant serotonin (5-Hydroxytryptamine) 5-HT2C receptor (Homo sapiens, UniProt P28335); test: Serotonin 5-HT2C radioligand binding ([3H]Mesulergine); conditions: compound at 1 μM; read-out: Serotonin (1 μM) 5-HT2C, percent inhibition of specific binding
T4 construct: expressed in transfected cells; host or cells: CHO-K1 cells
T4 sequence (P28335 33-458): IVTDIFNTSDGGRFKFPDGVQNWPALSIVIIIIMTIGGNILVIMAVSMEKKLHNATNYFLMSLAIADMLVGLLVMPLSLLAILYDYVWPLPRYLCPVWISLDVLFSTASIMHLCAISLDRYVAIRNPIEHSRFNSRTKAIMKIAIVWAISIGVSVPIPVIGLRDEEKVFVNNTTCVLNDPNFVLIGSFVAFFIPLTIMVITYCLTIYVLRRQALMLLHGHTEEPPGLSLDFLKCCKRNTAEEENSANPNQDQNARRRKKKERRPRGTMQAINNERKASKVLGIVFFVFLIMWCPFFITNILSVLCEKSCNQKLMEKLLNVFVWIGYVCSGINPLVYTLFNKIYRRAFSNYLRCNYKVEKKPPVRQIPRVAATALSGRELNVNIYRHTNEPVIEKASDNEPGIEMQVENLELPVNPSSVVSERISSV
How it was run: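 Membranes from CHO-K1 cells expressing human 5-HT2C, incubated with 1 nM [3H]mesulergine for 60 min at 25 °C in 50 mM Tris-HCl pH 7.4 with ascorbic acid and pargyline.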

T1 sequence (P50406 whole entry): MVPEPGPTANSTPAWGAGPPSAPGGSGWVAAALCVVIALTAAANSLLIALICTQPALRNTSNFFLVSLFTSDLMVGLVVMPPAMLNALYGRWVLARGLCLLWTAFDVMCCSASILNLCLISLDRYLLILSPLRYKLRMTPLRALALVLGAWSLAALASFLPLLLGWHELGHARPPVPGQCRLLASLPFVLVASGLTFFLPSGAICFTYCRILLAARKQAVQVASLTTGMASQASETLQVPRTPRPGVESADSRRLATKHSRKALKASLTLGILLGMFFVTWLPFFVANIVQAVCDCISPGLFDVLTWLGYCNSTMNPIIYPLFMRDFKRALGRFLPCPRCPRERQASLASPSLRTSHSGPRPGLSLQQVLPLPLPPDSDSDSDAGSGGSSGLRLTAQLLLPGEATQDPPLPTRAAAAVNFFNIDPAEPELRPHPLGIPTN

## COc1ccc(C(O)Cn2c3c(c4cc(C)ccc42)CCN(C)CC3)c(F)c1 (centres unmarked) [Compound No. 50, 1-(2-fluoro-4-methoxyphenyl)-2-(2,3,4,5-tetrahydro-3,9-dimethylazepino[4,5-b]indol-6(1H)-yl)ethanol]
[1]
  inhibition at 1 µM: 88%
[2]
  inhibition at 1 µM: 98%
[3]
  inhibition at 1 µM: 98%
[4]
  inhibition at 1 µM: 95%

## C=C(Cn1c2c(c3cc(Cl)ccc31)CCN(C)CC2)c1ccc(Cl)cc1 [Compound No. 35, 9-chloro-6-(2-(4-chlorophenyl)allyl)-3-methyl-1,2,3,4,5,6-hexahydroazepino[4,5-b]indole]
[1]
  inhibition at 1 µM: 102%
[2]
  inhibition at 1 µM: 99%
[3]
  inhibition at 1 µM: 100%
[4]
  inhibition at 1 µM: 91%

## Cc1ccc2c(c1)c1c(n2/C=C/c2ccc(F)cc2)CCN(C)CC1 [Compound No. 39, 6-(4-fluorostyryl)-1,2,3,4,5,6-hexahydro-3,9-dimethylazepino[4,5-b]indole]
[1]
  inhibition at 1 µM: 103%
[2]
  inhibition at 1 µM: 98%
[3]
  inhibition at 1 µM: 98%
[4]
  inhibition at 1 µM: 97%

## CN1CCc2c(n(C#Cc3ccc(Cl)cc3)c3ccc(Cl)cc23)CC1 [Compound No. 282, 9-chloro-6-((4-chlorophenyl)ethynyl)-3-methyl-1,2,3,4,5,6-hexahydroazepino[4,5-b]indole]
[1]
  inhibition at 1 µM: 71%
[2]
  inhibition at 1 µM: 98%
[3]
  inhibition at 1 µM: 99%
[4]
  inhibition at 1 µM: 103%

## Cc1ccc2c(c1)c1c(n2CCc2ccc(C(F)(F)F)nc2)CCN(C)CC1 [Compound No. 20, 6-(2-(6-(trifluoromethyl)pyridin-3-yl)ethyl)-1,2,3,4,5,6-hexahydro-3,9-dimethylazepino[4,5-b]indole]
[1]
  inhibition at 1 µM: 46%
[2]
  inhibition at 1 µM: 95%
[3]
  inhibition at 1 µM: 99%
[4]
  inhibition at 1 µM: 77%

## CN1CCc2c(n(/C=C/c3ccc(F)c(F)c3)c3ccc(Cl)cc23)CC1 [Compound No. 236, (E)-9-chloro-6-(3,4-difluorostyryl)-3-methyl-1,2,3,4,5,6-hexahydroazepino[4,5-b]indole]
[1]
  inhibition at 1 µM: 102%
[2]
  inhibition at 1 µM: 101%
[3]
  inhibition at 1 µM: 99%
[4]
  inhibition at 1 µM: 100%

## CN1CCc2c(n(CCc3ccccc3)c3ccc(Cl)cc23)CC1 [Compound No. 56, 9-chloro-1,2,3,4,5,6-hexahydro-3-methyl-6-phenethylazepino[4,5-b]indole]
[1]
  inhibition at 1 µM: 104%
[2]
  inhibition at 1 µM: 97%
[3]
  inhibition at 1 µM: 105%
[4]
  inhibition at 1 µM: 95%

## Cc1ccc2c(c1)c1c(n2CC(O)c2ccc(F)cc2F)CCN(C)CC1 (centres unmarked) [Compound No. 59, 1-(2,4-difluorophenyl)-2-(2,3,4,5-tetrahydro-3,9-dimethylazepino[4,5-b]indol-6(1H)-yl)ethanol]
[1]
  inhibition at 1 µM: 97%
[2]
  inhibition at 1 µM: 93%
[3]
  inhibition at 1 µM: 60%
[4]
  inhibition at 1 µM: -3%

## CN1CCc2c(n(CC(O)c3ccccc3F)c3ccc(Cl)cc23)CC1 (centres unmarked) [Compound No. 40, 2-(9-chloro-2,3,4,5-tetrahydro-3-methylazepino[4,5-b]indol-6(1H)-yl)-1-(2-fluorophenyl)ethanol]
[1]
  inhibition at 1 µM: 101%
[2]
  inhibition at 1 µM: 97%
[3]
  inhibition at 1 µM: 101%
[4]
  inhibition at 1 µM: 97%

## COc1ccc(C(O)Cn2c3c(c4cc(C)ccc42)CCN(C)CC3)cc1F (centres unmarked) [Compound No. 68, 1-(3-fluoro-4-methoxyphenyl)-2-(2,3,4,5-tetrahydro-3,9-dimethylazepino[4,5-b]indol-6(1H)-yl)ethanol]
[1]
  inhibition at 1 µM: 87%
[2]
  inhibition at 1 µM: 99%
[3]
  inhibition at 1 µM: 102%
[4]
  inhibition at 1 µM: 95%

## CN1CCc2c(n(CC(=O)Nc3ccc(F)cc3)c3ccc(Cl)cc23)CC1 [Compound No. 37, 2-(9-chloro-2,3,4,5-tetrahydro-3-methylazepino[4,5-b]indol-6(1H)-yl)-N-(4-fluorophenyl) acetamide]
[1]
  inhibition at 1 µM: 12%
[2]
  inhibition at 1 µM: 91%
[3]
  inhibition at 1 µM: 13%
[4]
  inhibition at 1 µM: 85%

## Cc1ccc2c(c1)c1c(n2CC(O)c2ccc(Cl)cc2)CCN(C)CC1 (centres unmarked) [Compound No. 17, 1-(4-chlorophenyl)-2-(2,3,4,5-tetrahydro-3,9-dimethylazepino[4,5-b]indol-6(1H)-yl)ethanol]
[1]
  inhibition at 1 µM: 80%
[2]
  inhibition at 1 µM: 102%
[3]
  inhibition at 1 µM: 101%
[4]
  inhibition at 1 µM: 93%

## C/C(=C\n1c2c(c3cc(C)ccc31)CCN(C)CC2)c1ccc(Cl)cc1Cl [Compound No. 238, (E)-6-(2-(2,4-dichlorophenyl)prop-1-enyl)-3,9-dimethyl-1,2,3,4,5,6-hexahydroazepino[4,5-b]indole]
[1]
  inhibition at 1 µM: 86%
[2]
  inhibition at 1 µM: 103%
[3]
  inhibition at 1 µM: 98%
[4]
  inhibition at 1 µM: 100%

## Cc1ccc2c(c1)c1c(n2CC(=O)N2CCCCC2)CCN(C)CC1 [Compound No. 32, 2-(2,3,4,5-tetrahydro-3,9-dimethylazepino[4,5-b]indol-6(1H)-yl)-1-(piperidin-1-yl)ethanone]
[1]
  inhibition at 1 µM: 4%
[2]
  inhibition at 1 µM: 60%
[3]
  inhibition at 1 µM: 11%
[4]
  inhibition at 1 µM: 48%

## CN1CCc2c(n(CC(O)c3ccc(F)c(F)c3)c3ccc(Cl)cc23)CC1 (centres unmarked) [Compound No. 58, 2-(9-chloro-2,3,4,5-tetrahydro-3-methylazepino[4,5-b]indol-6(1H)-yl)-1-(3,4-difluorophenyl)ethanol]
[1]
  inhibition at 1 µM: 99%
[2]
  inhibition at 1 µM: 100%
[3]
  inhibition at 1 µM: 98%
[4]
  inhibition at 1 µM: 16%

## CN1CCc2c(n(CCc3ccccn3)c3ccc(Cl)cc23)CC1 [Compound No. 8, 9-chloro-1,2,3,4,5,6-hexahydro-3-methyl-6-(2-(pyridin-2-yl)ethyl)azepino[4,5-b]indole]
[1]
  inhibition at 1 µM: 100%
[2]
  inhibition at 1 µM: 97%
[3]
  inhibition at 1 µM: 97%
[4]
  inhibition at 1 µM: 95%

## CN1CCc2c(n(CC(=O)N3CCOCC3)c3ccc(Cl)cc23)CC1 [Compound No. 60, 2-(9-chloro-2,3,4,5-tetrahydro-3-methylazepino[4,5-b]indol-6(1H)-yl)-1-morpholinoethanone]
[1]
  inhibition at 1 µM: 3%
[2]
  inhibition at 1 µM: -7%
[3]
  inhibition at 1 µM: 2%
[4]
  inhibition at 1 µM: -5%

## Cc1ccc2c(c1)c1c(n2CC(=O)N2CCOCC2)CCN(C)CC1 [Compound No. 38, 2-(2,3,4,5-tetrahydro-3,9-dimethylazepino[4,5-b]indol-6(1H)-yl)-1-morpholinoethanone]
[1]
  inhibition at 1 µM: 41%
[2]
  inhibition at 1 µM: 96%
[3]
  inhibition at 1 µM: 83%
[4]
  inhibition at 1 µM: 98%

## C/C(=C\n1c2c(c3cc(C)ccc31)CCN(C)CC2)c1ccc(Cl)cc1 [Compound No. 33, 6-((E)-2-(4-chlorophenyl)prop-1-enyl)-1,2,3,4,5,6-hexahydro-3,9-dimethylazepino[4,5-b]indole]
[1]
  inhibition at 1 µM: 98%
[2]
  inhibition at 1 µM: 100%
[3]
  inhibition at 1 µM: 87%
[4]
  inhibition at 1 µM: 86%

## Cc1ccc2c(c1)c1c(n2CC(=O)OC2CCCC2)CCN(C)CC1 [Compound No. 55, Cyclopentyl-2-(2,3,4,5-tetrahydro-3,9-dimethylazepino[4,5-b]indol-6(1H)-yl)acetate]
[1]
  inhibition at 1 µM: 4%
[2]
  inhibition at 1 µM: -2%
[3]
  inhibition at 1 µM: 15%
[4]
  inhibition at 1 µM: 32%

## Cc1ccc2c(c1)c1c(n2C(=O)Cc2ccc(F)cc2)CCN(C)CC1 [Compound No. 285, 1-(3,9-dimethyl-2,3,4,5-tetrahydroazepino[4,5-b]indol-6(1H)-yl)-2-(4-fluorophenyl) ethanone]
[1]
  inhibition at 1 µM: 94%
[2]
  inhibition at 1 µM: 100%
[3]
  inhibition at 1 µM: 68%
[4]
  inhibition at 1 µM: 99%

## Cc1ccc2c(c1)c1c(n2CCc2ccccn2)CCN(C)CC1 [Compound No. 9, 1,2,3,4,5,6-hexahydro-3,9-dimethyl-6-(2-(pyridin-2-yl)ethyl)azepino[4,5-b]indole]
[1]
  inhibition at 1 µM: 81%
[2]
  inhibition at 1 µM: 96%
[3]
  inhibition at 1 µM: 99%
[4]
  inhibition at 1 µM: 93%

## Cc1ccc2c(c1)c1c(n2/C=C/c2ccc(Cl)cc2)CCN(C)CC1 [Compound No. 235, (E)-6-(4-chlorostyryl)-3,9-dimethyl-1,2,3,4,5,6-hexahydroazepino[4,5-b]indole]
[1]
  inhibition at 1 µM: 97%
[2]
  inhibition at 1 µM: 102%
[3]
  inhibition at 1 µM: 97%
[4]
  inhibition at 1 µM: 98%
